The source of these data is patent US9896434B2, “Substituted indanone compounds as GPR119 modulators for the treatment of diabetes, obesity, dyslipidemia and related disorders” (SANOFI, priority 2014, dated 2018).

The test has as its target T1, human GPR119 (Homo sapiens, UniProt Q8TDV5).
T1 construct: expressed in transfected cells
T1 sequence (Q8TDV5 1-335): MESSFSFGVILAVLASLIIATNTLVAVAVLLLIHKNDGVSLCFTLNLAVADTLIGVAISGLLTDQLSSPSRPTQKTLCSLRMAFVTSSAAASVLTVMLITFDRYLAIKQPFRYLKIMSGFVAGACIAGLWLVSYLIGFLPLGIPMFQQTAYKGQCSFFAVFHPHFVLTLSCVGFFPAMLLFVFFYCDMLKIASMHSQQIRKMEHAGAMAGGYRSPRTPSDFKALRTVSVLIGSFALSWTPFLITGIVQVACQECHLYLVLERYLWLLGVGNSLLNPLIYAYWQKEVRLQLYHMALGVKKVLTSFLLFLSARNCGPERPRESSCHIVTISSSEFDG
As to the kind of experiment: Functional cellular assay measuring GPR119-mediated cAMP release (HTRF). Type of test: cell-based. As to conditions: HEK-293 cell line stably expressing recombinant human GPR119; cAMP response, 30 minutes at room temperature. The procedure:
Functional Cellular Assays Measuring GPR119-Mediated cAMP Release
Compounds of the invention, which are agonists of GPR119, were characterized by functional assays measuring the cAMP response of HEK-293 cell lines stably expressing recombinant GPR119 from man, mouse or rat, or by using a hamster cell line HIT-T15 expressing GPR119 endogenously. The cAMP content was determined using a kit based on homogenous time-resolved fluorescence (HTRF) from Cisbio Corp. (cat. no. 62AM4PEC). For preparation, cells were split into T175 culture flasks and grown to near confluency in medium (DMEM/10% FCS for HEK-293 cells, and F-12K medium/10% horse serum/2.5% FCS for HIT-T15 cells, respectively). Medium was then removed and cells washed with PBS lacking calcium and magnesium ions, followed by proteinase treatment with accutase (Sigma-Aldrich, cat. no. A6964). Detached cells were washed and resuspended in assay buffer (1×HBSS; 20 mM HEPES, 0.1% BSA, 2 mM IBMX) and cellular density determined. They were then diluted to 400000 cells/mL and 25 μL-aliquots dispensed to the wells of 96-well plates. For measurement, 25 μL of test compound in assay buffer was added and incubated for 30 minutes at room temperature. After addition of HTRF reagents diluted in lysis buffer, the plates were incubated for 1 hour, followed by measuring the fluorescence ratio at 665 vs. 620 nm. Potency of the agonists was quantified by determining the concentrations that caused 50% of the maximal response/activation (EC50). See Table 4 for exemplary data obtained using the cell line expressing human GPR119.
On the technique in general: In TR-FRET formats the signal depends on donor and acceptor labels being close together.
On to `CN(C)C(=O)CC1Cc2c(F)cc(N3CC[C@@H](Oc4ccc(OCC5CC5)nc4)C3=O)cc2C1=O` (stereo partly drawn) [Example 3-06, 2-[6-[(3R)-3-[[6-(cyclopropylmethoxy)-3-pyridyl]oxy]-2-oxo-pyrrolidin-1-yl]-4-fluoro-1-oxo-indan-2-yl]-N,N-dimethyl-acetamide], for which the concentration giving a half-maximal response (EC50) (commonly the concentration giving half of the maximal effect) amounted to 46 nM.
The result for `COC(=O)CC1(CC(=O)O)Cc2c(F)cc(N3CC[C@@H](Oc4ccc(OCC5CC5)nc4)C3=O)cc2C1=O` (stereo partly drawn) [Example 1-07, 2-[6-[(3R)-3-[[6-(cyclopropylmethoxy)-3-pyridyl]oxy]-2-oxo-pyrrolidin-1-yl]-4-fluoro-2-(2-methoxy-2-oxo-ethyl)-1-oxo-indan-2-yl]acetic acid] reads 332 nM; that for `O=C(O)C[C@H]1CC(=O)c2cc(N3CC[C@@H](Oc4ccc(OCC5CC5)nc4)C3=O)ccc21` [Example 2-04, 2-[5-[(3R)-3-[[6-(cyclopropylmethoxy)-3-pyridyl]oxy]-2-oxo-pyrrolidin-1-yl]-3-oxo-indan-1-yl]acetic acid], 505 nM.
`O=C(O)CC1Cc2c(F)cc(N3CC[C@@H](Oc4ccc(OCC5CC5)nc4)C3=O)cc2C1=O` (stereo partly drawn) [Example 2-01, {6-[(R)-3-(6-cyclopropylmethoxy-pyridin-3-yloxy)-2-oxo-pyrrolidin-1-yl]-4-fluoro-1-oxo-indan-2-yl}-acetic acid]: the EC50 was determined as 360 nM.
As to `O=C1CC(CO)c2c(F)cc(N3CC[C@@H](Oc4ccc(OCC5CC5)nc4)C3=O)cc21` (stereo partly drawn) [Example 1-17, (3R)-3-[[6-(cyclopropylmethoxy)-3-pyridyl]oxy]-1-[7-fluoro-1-(hydroxymethyl)-3-oxo-indan-5-yl]pyrrolidin-2-one], the EC50 amounted to 72 nM.
In the case of `O=C1c2cc(N3CC[C@@H](Oc4ccc(OCC5CC5)nc4)C3=O)cc(F)c2CC1CC(=O)N1CCOCC1` (stereo partly drawn) [Example 3-07, (3R)-3-[[6-(cyclopropylmethoxy)-3-pyridyl]oxy]-1-[7-fluoro-2-(2-morpholino-2-oxo-ethyl)-3-oxo-indan-5-yl]pyrrolidin-2-one], the 50% effective concentration (EC50) came out at 83 nM.
With `COC(=O)CC1Cc2c(F)cc(N3CC[C@@H](Oc4ccc(OCC5CC5)nc4)C3=O)cc2C1=O` (stereo partly drawn) [Example 1-04, {6-[(R)-3-(6-cyclopropylmethoxy-pyridin-3-yloxy)-2-oxo-pyrrolidin-1-yl]-4-fluoro-1-oxo-indan-2-yl}-acetic acid methyl ester], the EC50 is 14 nM.
`NC(=O)CC1CC(=O)c2cc(N3CC[C@@H](Oc4ccc(OCC5CC5)nc4)C3=O)ccc21` (stereo partly drawn) [Example 3-04, 2-[5-[(3R)-3-[[6-(cyclopropylmethoxy)-3-pyridyl]oxy]-2-oxo-pyrrolidin-1-yl]-3-oxo-indan-1-yl]acetamide]: the EC50 is 320 nM.
For the compound `COC(=O)CC1CC(=O)c2cc(N3CC[C@@H](Oc4ccc(OC5CC5)nc4)C3=O)ccc21` (stereo partly drawn) [Example 1-13, methyl 2-[5-[(3R)-3-[[6-(cyclopropoxy)-3-pyridyl]oxy]-2-oxo-pyrrolidin-1-yl]-3-oxo-indan-1-yl]acetate], the 50% effective concentration (EC50) worked out at 98 nM.
Take `COC(=O)CC1CC(=O)c2cc(N3CC[C@@H](Oc4ccc(OCC5CC5)nc4)C3=O)cc(F)c21` (stereo partly drawn) [Example 1-09, methyl 2-[5-[(3R)-3-[[6-(cyclopropylmethoxy)-3-pyridyl]oxy]-2-oxo-pyrrolidin-1-yl]-7-fluoro-3-oxo-indan-1-yl]acetate]: the EC50 amounted to 12 nM.
The result for `COC(=O)CC1CC(=O)c2cc(N3CC[C@@H](Oc4ccc(Oc5ccc(F)cc5)cc4)C3=O)ccc21` (stereo partly drawn) [Example 1-03, methyl 2-[5-[(3R)-3-[4-(4-fluorophenoxy)phenoxy]-2-oxo-pyrrolidin-1-yl]-3-oxo-indan-1-yl]acetate] reads 111 nM.
